According to ChEMBL document CHEMBL1145321, “Evaluation of indenoisoquinoline topoisomerase I inhibitors using a hollow fiber assay” (2006):

Each compound was assayed on Panel NCI-60 (60 carcinoma cell lines) (assay: Antiproliferative activity against human NCI60 cell line measured as mean graph midpoint).
Assay type: functional

Point of comparison: O=C1c2cc3c(cc2-c2c1c1ccccc1c(=O)n2CCCNCCCO)OCO3, Activity 15.5 µM. Against it:
- COc1cc2c3c(n(C)c(=O)c2cc1OC)-c1cc2c(cc1/C3=C/CCCI)OCO2 — 1.8-fold lower, 8.49 µM
- Cl.NCCCn1c2c(c3ccccc3c1=O)C(=O)c1cc3c(cc1-2)OCO3 — 62-fold lower, 0.251 µM
- COc1cc2c3c(n(Cc4ccccc4)c(=O)c2cc1OC)-c1cc2c(cc1C3=O)OCO2 — 2.7-fold higher, 41.6 µM
- O=C1c2ccccc2-c2c1c1ccccc1c(=O)n2CCCCCO — within 1.5-fold, 14.4 µM
- Cn1c2c(c3ccccc3c1=O)C(=O)c1cc3c(cc1-2)OCO3 — 2.9-fold higher, 45 µM
- COc1cc2c3c(n(CCN)c(=O)c2cc1OC)-c1cc2c(cc1C3=O)OCO2.Cl — 46-fold lower, 0.338 µM
- Cl.NCCCCn1c2c(c3ccccc3c1=O)C(=O)c1ccccc1-2 — 99-fold lower, 0.156 µM
- COc1cc2c(cc1[N+](=O)[O-])C(=O)N(CCCBr)[C@@H]1c3cc4c(cc3C(=O)[C@H]21)OCO4 — 970-fold lower, 0.016 µM
- COc1cc2c(cc1OC)[C@H]1C(=O)c3cc4c(cc3[C@H]1N(CCCBr)C2=O)OCO4 — 22-fold lower, 0.69 µM
- COc1cc2c(cc1OC)[C@H]1C(=O)c3cc4c(cc3[C@H]1N(Cc1ccccc1)C2=O)OCO4 — 13-fold lower, 1.18 µM
- [N-]=[N+]=NCCCn1c2c(c3ccc([N+](=O)[O-])cc3c1=O)C(=O)c1cc3c(cc1-2)OCO3 — 160-fold lower, 0.098 µM
- Cl.NCCCn1c2c(c3ccccc3c1=O)C(=O)c1ccccc1-2 — 49-fold lower, 0.315 µM
- CCCCn1c2c(c3cc(OC)c(OC)cc3c1=O)C(=O)c1cc3c(cc1-2)OCO3 — 2.7-fold higher, 41.6 µM
- COc1cc2c3c(n(CCCNCCN)c(=O)c2cc1OC)-c1cc2c(cc1C3=O)OCO2.Cl.Cl — 45-fold lower, 0.347 µM
- COc1cc2c3c(n(CCCCO)c(=O)c2cc1OC)-c1cc2c(cc1C3=O)OCO2 — 4.8-fold lower, 3.2 µM
- Cl.c1c2c(cc3c1OCO3)-c1ncc3cc4c(cc3c1C2)OCO4 — 57-fold lower, 0.271 µM
- COc1cc2c3c(n(CCCN)c(=O)c2cc1OC)-c1cc2c(cc1C3=O)OCO2.Cl — 97-fold lower, 0.16 µM
- COc1cc2c3c(n(CCCNCCNCCN)c(=O)c2cc1OC)-c1cc2c(cc1C3=O)OCO2.Cl — 6.5-fold lower, 2.4 µM
- Cl.O=C1c2ccccc2-c2c1c1ccccc1c(=O)n2CCCNCCCn1ccnc1 — 15-fold lower, 1.01 µM
- Cl.NCCCn1c2c(c3ccc([N+](=O)[O-])cc3c1=O)C(=O)c1ccccc1-2 — 110-fold lower, 0.146 µM
- COc1cc2c3c(n(C)c(=O)c2cc1OC)-c1cc2c(cc1C3=O)OCO2 — within 1.5-fold, 20 µM
- CC[C@@]1(O)C(=O)OCc2c1cc1n(c2=O)Cc2cc3ccccc3nc2-1 [CAMPTOTHECIN] — 380-fold lower, 0.0405 µM
- CC(=O)O[C@H]1C(=O)[C@@]2(C)[C@H]([C@H](OC(=O)c3ccccc3)[C@]3(O)C[C@H](OC(=O)[C@H](O)[C@@H](NC(=O)c4ccccc4)c4ccccc4)C(C)=C1C3(C)C)[C@]1(OC(C)=O)CO[C@@H]1C[C@@H]2O [PACLITAXEL] — 610-fold lower, 0.0253 µM
- CC[C@]1(O)C[C@@H]2CN(CCc3c([nH]c4ccccc34)[C@@](C(=O)OC)(c3cc4c(cc3OC)N(C)[C@H]3[C@@](O)(C(=O)OC)[C@H](OC(C)=O)[C@]5(CC)C=CCN6CC[C@]43[C@@H]65)C2)C1.O=S(=O)(O)O [VINBLASTINE SULFATE] — 620-fold lower, 0.025 µM
